Source: ChEMBL document CHEMBL1158559, “Chromone-2- and -3-carboxylic acids inhibit differently monoamine oxidases A and B” (Bioorg Med Chem Lett, 2010)

How the values were obtained:
[1] = molecular target: T1, Amine oxidase [flavin-containing] A (Homo sapiens, UniProt P21397); assay: Inhibition of human recombinant MAO-A assessed as inhibition of production of hydrogen peroxide at 100 uM after 15 mins by the Amplex Red fluorimetric method
T1 sequence (P21397 whole entry): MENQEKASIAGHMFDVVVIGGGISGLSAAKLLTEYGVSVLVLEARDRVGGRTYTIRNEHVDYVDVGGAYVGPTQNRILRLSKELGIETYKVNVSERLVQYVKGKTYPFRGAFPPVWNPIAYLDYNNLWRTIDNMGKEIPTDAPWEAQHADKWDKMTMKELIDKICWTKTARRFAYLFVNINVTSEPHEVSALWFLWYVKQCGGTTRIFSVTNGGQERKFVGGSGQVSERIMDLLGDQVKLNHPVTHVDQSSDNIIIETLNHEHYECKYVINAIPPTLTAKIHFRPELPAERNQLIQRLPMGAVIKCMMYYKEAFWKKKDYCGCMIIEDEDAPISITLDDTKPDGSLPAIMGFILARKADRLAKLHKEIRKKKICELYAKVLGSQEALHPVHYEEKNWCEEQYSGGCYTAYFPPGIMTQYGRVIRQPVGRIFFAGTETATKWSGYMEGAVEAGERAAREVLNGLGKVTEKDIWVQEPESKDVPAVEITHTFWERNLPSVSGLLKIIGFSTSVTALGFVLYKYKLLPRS

[2] = molecular target: T2, Amine oxidase [flavin-containing] B (Homo sapiens, UniProt P27338); assay: Inhibition of human recombinant MAO-B assessed as inhibition of production of hydrogen peroxide at 100 uM after 15 mins by the Amplex Red fluorimetric method
T2 sequence (P27338 whole entry): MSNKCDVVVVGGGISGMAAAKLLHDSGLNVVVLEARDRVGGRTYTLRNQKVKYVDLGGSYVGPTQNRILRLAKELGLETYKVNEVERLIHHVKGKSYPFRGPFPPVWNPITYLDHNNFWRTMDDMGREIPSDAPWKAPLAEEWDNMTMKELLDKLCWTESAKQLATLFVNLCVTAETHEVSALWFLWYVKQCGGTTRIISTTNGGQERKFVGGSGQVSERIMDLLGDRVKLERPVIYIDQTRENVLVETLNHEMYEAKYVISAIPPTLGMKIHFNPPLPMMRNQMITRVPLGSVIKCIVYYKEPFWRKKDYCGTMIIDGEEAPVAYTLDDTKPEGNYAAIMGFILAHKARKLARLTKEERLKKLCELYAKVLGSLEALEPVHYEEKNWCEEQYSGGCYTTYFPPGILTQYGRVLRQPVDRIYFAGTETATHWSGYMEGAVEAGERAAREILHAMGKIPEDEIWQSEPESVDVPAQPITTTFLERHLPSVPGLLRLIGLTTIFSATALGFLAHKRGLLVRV

[3] = molecular target: T2, Amine oxidase [flavin-containing] B; assay: Inhibition of human recombinant MAO-B assessed as inhibition of production of hydrogen peroxide at 1 mM after 15 mins by the Amplex Red fluorimetric method

| IC50 [1] | IC50 [2] | Compound | IC50 [3] |
| --- | --- | --- | --- |
| Not Active |  | O=C(O)c1coc2ccccc2c1=O |  |
| Not Active | Not Active | O=C(O)c1cc(=O)c2ccccc2o1 [CHROMOCARB] |  |
|  |  | O=C(NCCN1CCOCC1)c1ccc(Cl)cc1 [MOCLOBEMIDE] | Not Active |
